Laboratory results taken from US4504481A, “Benzhydrylpiperazine derivatives, process for their preparation and pharmaceutical compositions containing them” (Richter Gedeon Vegyeszeti Gyar Rt., priority 1982, dated 1985).

How the values were obtained:
[1] = H. Ippen: Index Pharmacorum (1970); cited from earlier work
[2] = acute oral toxicity; settings: in vivo; rat, single 500 mg./kg. oral dose, 14 days observation, n=10; read-out: Perished animals
Description: The acute toxicity of the compounds having the formula (I) was tested on H-Wistar rats of both sexes, each weighing 160 to 180 g. The compounds were administered in a single 500 mg./kg. oral dose.

[3] = tested on: hexobarbital oxidase; assay: in vivo hexobarbital narcosis period (change of hexobarbital oxidase activity); design: species or system Female Hann.-Wistar rats; settings: rat, hexobarbital sodium 60 mg./kg. i.v., ± S.E., n=10; for Hexobarbital narcosis period in % of control, 1 hour: 1 hour after administration, control 44.3 ± 5.67 min.; for Hexobarbital narcosis period in % of control, 24 hours: 24 hours after administration, control 47.0 ± 5.21 min.
Description: The enzyme inhibiting activity of the new compounds was tested in vivo, by measuring the change of hexobarbital oxidase activity. Female Hann.-Wistarrats, each weighing 50 to 60 g. were treated orally with a single 40 mg./kg. dose of the test compound. One and 24 hours after the administration of the active ingredient, the animals were narcotized with a 60 mg./kg. i.v. dosage of hexobarbital sodium, and the time elapsed until complete wakening was measured (Noordhoek, J.: Eur. J. Pharmacol., 3, 242 (1968)). The data were recorded, and the mean values, the standard errors as well as the percentage increase with respect to the controls were calculated for each group. […] The hexobarbital concentration of the plasm, measured on the instant wakening, was the same for both the treated and the control animals, and thus the increase of narcosis period was not due to a certain central nervous interaction (Jori, A. et al.: Biochem. Pharmacol., 19, 2687 (1970)).
The control group was treated with placebo.

[4] = tested on: aminopyrine demethylase; assay: aminopyrine demethylase activity of liver after oral treatment (formaldehyde formed); format: in vivo, Female H.-Wistar rats; settings: rat liver, 2 hours after single 40 mg./kg. oral dose; ± S.E.; control 260.7 ± 11.2 nmoles/g. of liver/min.
Description: (§1) The enzyme inhibiting activity of the compounds of the formula (I) was further tested by determining the activity of the polysubstrate liver monooxygenase enzyme system after treatment with placebo and the compounds according to the invention, respectively. Female H.-Wistar rats weighing 50 to 60 g. each were administered a single 40 mg./kg. oral dose of the test compounds. Two hours after treatment the animals were decapitated and the livers were removed. After rinsing with a physiological saline solution at 0° C., drying and weighing, the livers were homogenized in a 0.1 molar Tris-HCl buffer (pH=7.4), containing 1.15% of potassium chloride at 0° C., centrifuged at 9000 g for 20 minutes, and the supernatant (postmitochondrial fraction) was used for further investigations. The microsomal fraction was prepared following the method developed by Cinti D. L. et al.: Biochem. Pharmacol., 21, 3249 (1972). The activity of aniline hydroxylase was determined from the velocity of p-amino-phenol formation according to Chabra R. S. et al.: Toxicol. Appl. Pharmacol. 22, 50 (1972). The activity of the aminopyrine demethylase was measured from the amount of the formaldehyde formed, according to Gourlay G. K. et al: Biochem. Pharmacol., 27, 965 (1978). The control groups were treated with placebo. The results are shown in Table 2, expressed in percentage of the control.

[5] = tested on: aniline hydroxylase; assay: aniline hydroxylase activity of liver after oral treatment (p-amino-phenol formation); format: in vivo, Female H.-Wistar rats; settings: rat liver, 2 hours after single 40 mg./kg. oral dose; ± S.E.; control 19.8 ± 0.53 nmoles/g. of liver/min.
Description: as §1

Row | Compound | anticonvulsive side effect [1] | mortality at 336 h [2] | Hexobarbital narcosis period in % of control, 1 hour ([3]; reference dose 100 mg./kg.) | Hexobarbital narcosis period in % of control, 24 hours ([3]; reference dose 100 mg./kg.) | Aminopyrine demethylase activity, in percentage of the control [4] | Aniline hydroxylase activity, in percentage of the control [5] | Hexobarbital narcosis period in % of control, 1 hour ([3]; single oral dose 40 mg./kg.) | Hexobarbital narcosis period in % of control, 24 hours ([3]; single oral dose 40 mg./kg.)
1 | CCCC(C(=O)OCCN(CC)CC)(c1ccccc1)c1ccccc1 [Proadiphene, (2-diethylaminoethyl)-α,α-diphenyl valerate, reference compound] | exerted an anticonvulsive side effect | 90% | 241 ± 9.6 % of control | 44 ± 5.7 % of control |  |  |  | 
2 | CCC(O)(c1ccc(OCCCN2CCN(C(c3ccccc3)c3ccccc3)CC2)cc1)c1ccccc1OC (stereo not drawn) [A, α-ethyl-α-(2-methoxyphenyl)-4-[3-(4-benzhydryl-piperazin-1-yl)-propoxy]-benzylalcohol] |  | 0% |  |  | 71 ± 8.1 % of control | 72 ± 5.8 % of control | 116 ± 6.7 % of control | 172 ± 8.7 % of control
